A short description of data set [1]: The drug is tested on Collinsella intestinalis strain: DSM13280 for biotransformation. The drug concentrations were measured before and after a 12-h incubation by liquid-chromatography-coupled mass spectrometry (LC–MS). Particulars: 2 µM.
Data set [2] in a line: The drug is tested on Bacteroides caccae strain: ATCC43185 for biotransformation. The drug concentrations were measured before and after a 12-h incubation by liquid-chromatography-coupled mass spectrometry (LC–MS). Particulars: 2 µM.
Data set [3] in a line: The drug is tested on Bacteroides finegoldii strain: DSM17565 for biotransformation. The drug concentrations were measured before and after a 12-h incubation by liquid-chromatography-coupled mass spectrometry (LC–MS). Particulars: 2 µM.
A short description of data set [4]: The drug is tested on Bacteroides fragilis strain: ATCC43859 for biotransformation. The drug concentrations were measured before and after a 12-h incubation by liquid-chromatography-coupled mass spectrometry (LC–MS). As to conditions: 2 µM.
Data set [5] can be described thus: The drug is tested on Parabacteroides merdae strain: ATCC43184 for biotransformation. The drug concentrations were measured before and after a 12-h incubation by liquid-chromatography-coupled mass spectrometry (LC–MS). Particulars: 2 µM.
A short description of data set [6]: The drug is tested on Anaerococcus hydrogenalis strain: DSM7454 for biotransformation. The drug concentrations were measured before and after a 12-h incubation by liquid-chromatography-coupled mass spectrometry (LC–MS). Particulars: 2 µM.
A short description of data set [7]: The drug is tested on Anaerotruncus colihominis strain: DSM17241 for biotransformation. The drug concentrations were measured before and after a 12-h incubation by liquid-chromatography-coupled mass spectrometry (LC–MS). Particulars: 2 µM.
Data set [8] can be described thus: The drug is tested on Blautia luti strain: DSM14534 for biotransformation. The drug concentrations were measured before and after a 12-h incubation by liquid-chromatography-coupled mass spectrometry (LC–MS). Type of data set: ADME. Details: dose 2 uM, timepoint 0 vs 12 hours. Particulars: 2 µM.
The nature of data set [9]: The drug is tested on Clostridium sp. strain: fecal isolate for biotransformation. The drug concentrations were measured before and after a 12-h incubation by liquid-chromatography-coupled mass spectrometry (LC–MS). Particulars: 2 µM.
Data set [10] in a line: The drug is tested on Clostridium scindens strain: ATCC35704 for biotransformation. The drug concentrations were measured before and after a 12-h incubation by liquid-chromatography-coupled mass spectrometry (LC–MS). As to conditions: 2 µM.
Data set [11] is described as follows: The drug is tested on Clostridium sporogenes strain: ATCC15579 for biotransformation. The drug concentrations were measured before and after a 12-h incubation by liquid-chromatography-coupled mass spectrometry (LC–MS). As to conditions: 2 µM.
A short description of data set [12]: The drug is tested on Ruminococcus gnavus strain: ATCC29149 for biotransformation. The drug concentrations were measured before and after a 12-h incubation by liquid-chromatography-coupled mass spectrometry (LC–MS). Particulars: mediterraneibacter gnavus, 2 µM.
Data set [13] is described as follows: The drug is tested on Subdoligranulum variabile strain: DSM15176 for biotransformation. The drug concentrations were measured before and after a 12-h incubation by liquid-chromatography-coupled mass spectrometry (LC–MS). Particulars: 2 µM.
A short description of data set [14]: The drug is tested on Edwardsiella tarda strain: ATCC23685 for biotransformation. The drug concentrations were measured before and after a 12-h incubation by liquid-chromatography-coupled mass spectrometry (LC–MS). Particulars: 2 µM.
Data set [15] is described as follows: The drug is tested on Enterobacter cancerogenus strain: ATCC35316 for biotransformation. The drug concentrations were measured before and after a 12-h incubation by liquid-chromatography-coupled mass spectrometry (LC–MS). As to conditions: 2 µM.
Data set [16] in a line: The drug is tested on Providencia rettgeri strain: DSM1131 for biotransformation. The drug concentrations were measured before and after a 12-h incubation by liquid-chromatography-coupled mass spectrometry (LC–MS). As to conditions: 2 µM. The class given is ADME. Details: dose 2 uM, timepoint 0 vs 12 hours.
For data set [17] the following is noted: bacteroides stercoris, 12 h, 2 µM.
Description: The drug is tested on Bacteroides stercoris strain: ATCC43183 for biotransformation. The drug concentrations were measured before and after a 12-h incubation by liquid-chromatography-coupled mass spectrometry (LC–MS)
For data set [18] the following is noted: bacteroides thetaiotaomicron, 12 h, 2 µM.
Description: The drug is tested on Bacteroides thetaiotaomicron strain: 3731 for biotransformation. The drug concentrations were measured before and after a 12-h incubation by liquid-chromatography-coupled mass spectrometry (LC–MS)
The conditions of data set [19]: parabacteroides distasonis, 12 h, 2 µM.
Description: The drug is tested on Parabacteroides distasonis strain: ATCC8503 for biotransformation. The drug concentrations were measured before and after a 12-h incubation by liquid-chromatography-coupled mass spectrometry (LC–MS)
Data set [20] in a line: The drug is tested on Bacteroides cellulosilyticus strain: DSM14838 for biotransformation. The drug concentrations were measured before and after a 12-h incubation by liquid-chromatography-coupled mass spectrometry (LC–MS). As to conditions: 2 µM.

Consider `CN(C)C(=O)Oc1cc(OC(=O)N(C)C)cc(C(O)CNC(C)(C)C)c1` (stereo not given) [BAMBUTEROL], for which the “Bacterial Biotransformation” value in [1], in data set [2], in data set [3], in data set [4], in data set [5] and in [6] was “Compound NOT metabolized” in each case. For the same molecule, the “Bacterial Biotransformation” value in [7], in [8], in data set [9], in data set [10], in data set [11] and in data set [12] was “Compound NOT metabolized” each time. The “Bacterial Biotransformation” value in data set [13], in data set [14], in [15], in data set [16], in data set [17] and in data set [18] was “Compound NOT metabolized” in each case. Moreover, the “Bacterial Biotransformation” value in data set [19] is given as “Compound NOT metabolized”.
Turning to `CN1CCC[C@@H]1CCO[C@](C)(c1ccccc1)c1ccc(Cl)cc1.O=C(O)/C=C/C(=O)O` [CLEMASTINE FUMARATE], the “Bacterial Biotransformation” value in [1] is “Compound NOT metabolized”; in data set [20] it was “Compound metabolized”; in data set [4] it was “Compound NOT metabolized”; in data set [5], “Compound NOT metabolized”; in data set [6] it was “Compound NOT metabolized”; in data set [8] it was “Compound NOT metabolized”. For the same molecule, the “Bacterial Biotransformation” value in [9] is “Compound metabolized”; in data set [10], “Compound NOT metabolized”; in data set [12], “Compound NOT metabolized”; in data set [13], “Compound NOT metabolized”; in data set [14], “Compound NOT metabolized”; in data set [16], “Compound metabolized”. Besides, the “Bacterial Biotransformation” value in data set [17] and in [19] was “Compound metabolized” in each case.
In the case of `CC(=O)O[C@]1(C(C)=O)CC[C@H]2[C@@H]3C=C(Cl)C4=CC(=O)[C@@H]5C[C@@H]5[C@]4(C)[C@H]3CC[C@@]21C` [CYPROTERONE ACETATE], the “Bacterial Biotransformation” value in data set [1] was “Compound NOT metabolized”; in [2] it was “Compound NOT metabolized”; in data set [20], “Compound metabolized”; in data set [3], “Compound NOT metabolized”; in data set [4], “Compound metabolized”; in [5], “Compound NOT metabolized”. In addition, the “Bacterial Biotransformation” value was “Compound NOT metabolized” in data set [6]; “Compound metabolized” in [7]; “Compound NOT metabolized” in [8]; “Compound metabolized” in data set [9]; “Compound metabolized” in [10]; “Compound metabolized” in data set [11]. For the same molecule, the “Bacterial Biotransformation” value is reported as “Compound NOT metabolized” in [12]; “Compound NOT metabolized” in data set [13]; “Compound NOT metabolized” in [14]; “Compound NOT metabolized” in [16]; “Compound metabolized” in [17]; “Compound metabolized” in data set [18]. In data set [19], the “Bacterial Biotransformation” value was “Compound metabolized”.
For the molecule `CC(=O)Nc1ccc(OC(C)=O)cc1` [DIACETAMATE], the “Bacterial Biotransformation” value in data set [1], in data set [2], in [20], in [3], in [4] and in data set [5] was “Compound metabolized” in each case. For the same molecule, the “Bacterial Biotransformation” value in data set [6] is recorded as “Compound metabolized”; in data set [7], “Compound metabolized”; in [8], “Compound metabolized”; in data set [9], “Compound NOT metabolized”; in [10] it was “Compound metabolized”; in data set [11] it was “Compound metabolized”. The “Bacterial Biotransformation” value in [12], in data set [13], in data set [14], in [16], in [17] and in data set [18] was “Compound metabolized” each time. Further, the “Bacterial Biotransformation” value in data set [19] is given as “Compound metabolized”.
Regarding `c1ccc([C@H]2CN3CCSC3=N2)cc1` [LEVAMISOLE], the “Bacterial Biotransformation” value in [1] is reported as “Compound NOT metabolized”; in data set [2], “Compound metabolized”; in [20], “Compound NOT metabolized”; in data set [3], “Compound NOT metabolized”; in data set [4], “Compound metabolized”; in data set [5], “Compound NOT metabolized”. For the same molecule, the “Bacterial Biotransformation” value is listed as “Compound metabolized” in data set [6]; “Compound metabolized” in data set [7]; “Compound NOT metabolized” in data set [8]; “Compound metabolized” in data set [9]; “Compound metabolized” in data set [10]; “Compound metabolized” in [11]. Also, the “Bacterial Biotransformation” value is listed as “Compound NOT metabolized” in data set [12]; “Compound NOT metabolized” in [13]; “Compound metabolized” in data set [14]; “Compound NOT metabolized” in data set [16]; “Compound metabolized” in data set [17]; “Compound NOT metabolized” in data set [18]. The “Bacterial Biotransformation” value in data set [19] is “Compound metabolized”.
On to `Nc1ccc(/N=N/c2ccccc2)c(N)n1` [PHENAZOPYRIDINE], for which the “Bacterial Biotransformation” value in [1], in [2], in data set [20], in data set [3], in data set [4] and in data set [5] was “Compound metabolized” in each case. Further, the “Bacterial Biotransformation” value in data set [6], in [7], in [8], in [9], in data set [10] and in [11] was “Compound metabolized” each time. The “Bacterial Biotransformation” value is recorded as “Compound metabolized” in data set [12]; “Compound metabolized” in data set [13]; “Compound NOT metabolized” in data set [16]; “Compound metabolized” in data set [18]; “Compound metabolized” in [19].
As to `O=C(O)c1cc(/N=N/c2ccc(S(=O)(=O)Nc3ccccn3)cc2)ccc1O` [SULFASALAZINE], the “Bacterial Biotransformation” value in [1], in data set [2], in data set [20], in data set [3], in [4] and in [5] was “Compound metabolized” throughout. For the same molecule, the “Bacterial Biotransformation” value in [6], in [7], in data set [8], in data set [9], in data set [10] and in [11] was “Compound metabolized” each time. Besides, the “Bacterial Biotransformation” value is given as “Compound metabolized” in data set [12]; “Compound metabolized” in [13]; “Compound NOT metabolized” in [16]; “Compound metabolized” in data set [17]; “Compound metabolized” in data set [18]; “Compound metabolized” in data set [19].

Source of the values: ChEMBL document CHEMBL5303573, “Mapping human microbiome drug metabolism by gut bacteria and their genes” (Nature, 2019).
